Laboratory results from ChEMBL document CHEMBL3124919, “Design, synthesis and biological evaluation of 3-[4-(7-chloro-quinolin-4-yl)-piperazin-1-yl]-propionic acid hydrazones as antiprotozoal agents” (Eur J Med Chem, 2014).
Active and inactive are the calls of the source. The calls are words filed in the database; no cut-off is given here.

What was measured:
Entamoeba histolytica [1] = assay: Antiprotozoal activity against Entamoeba histolytica HM-1:IMSS trophozoites after 72 hrs by microdilution method; type: functional, organism-based
Plasmodium falciparum [2] = assay: Antimicrobial activity against erythrocytic stage of chloroquine-resistant Plasmodium falciparum W2 infected in human erythrocytes assessed as [3H]hypoxanthine incorporation at 1 ug/ml after 24 hrs by beta-radiation counting analysis; type: functional
[3] = Cytotoxicity against human erythrocytes assessed as hemolysis at 25 uM after 1 hr by spectrophotometry; type: cell-based; details: erythrocyte
[4] = Cytotoxicity against BALB/c mouse splenocytes assessed as [3H]-thymidine incorporation after 24 hrs by beta-radiation counting analysis relative to control; type: cell-based; details: Splenocyte
Plasmodium falciparum [5] = assay: Antimicrobial activity against erythrocytic stage of chloroquine-resistant Plasmodium falciparum W2 infected in human erythrocytes assessed as [3H]hypoxanthine incorporation after 24 hrs by beta-radiation counting analysis; type: functional, organism-based
[6] = Inhibition of beta-hematin formation at 2.5 mM after 24 hrs by spectrophotometry; type: physicochemical; details: 2500 µM
Plasmodium falciparum [7] = assay: Antimicrobial activity against ring stage chloroquine-resistant Plasmodium falciparum W2 infected in human erythrocytes assessed as inhibition of schizont stage parasite growth at 0.5 to 1 uM after 48 hrs by light microscopy; type: functional, organism-based
Entamoeba histolytica [8] = assay: Ratio of metronidazole IC50 to compound IC50 for Entamoeba histolytica HM-1:IMSS trophozoites; type: functional
[9] = Selectivity index, ratio of IC50 for BALB/c mouse splenocytes to IC50 for Entamoeba histolytica HM-1:IMSS trophozoites
[10] = Plasmodium falciparum, W2, read-out: IC50

Structure (SMILES) | IC50 (Entamoeba histolytica [1]) [µM] | inhibition at 1 µg/mL (Plasmodium falciparum [2]) [%] | IC50 [4] [µM] | IC50 (Plasmodium falciparum [5]; [10]) [µM] | further results
COc1ccc(/C=N/NC(=O)CCN2CCN(c3ccnc4cc(Cl)ccc34)CC2)cc1OC | 11.6 | 98.4 | – | – | –
COc1ccc(OC)c(/C=N/NC(=O)CCN2CCN(c3ccnc4cc(Cl)ccc34)CC2)c1 | 8.2 | 37.4 | – | – | –
CN(C)c1ccc(/C=N/NC(=O)CCN2CCN(c3ccnc4cc(Cl)ccc34)CC2)cc1 | 15.2 | 98 | > 100 | 1.3 | Activity [3]: Non-toxic; inhibition (INH) [6]: 94.2%
O=C(CCN1CCN(c2ccnc3cc(Cl)ccc23)CC1)N/N=C/c1cccc(Cl)c1 | 7.7 | 97.3 | > 100 | – | –
Cc1ncc([N+](=O)[O-])n1CCO [METRONIDAZOLE] | 1.5 | – | 5.4 | – | –
O=C(CCN1CCN(c2ccnc3cc(Cl)ccc23)CC1)N/N=C/c1ccc(Cl)cc1 | 87.2 | 98.4 | 0.2 | 1.4 | –
O=C(CCN1CCN(c2ccnc3cc(Cl)ccc23)CC1)N/N=C/c1cc(Br)c(O)c(Br)c1 | 6.6 | 28 | – | – | IC50 (Plasmodium falciparum [5]): Not Active
COc1cc(/C=N/NC(=O)CCN2CCN(c3ccnc4cc(Cl)ccc34)CC2)cc(OC)c1OC | 12.4 | 47.4 | – | – | –
CC(C)Oc1ccc(/C=N/NC(=O)CCN2CCN(c3ccnc4cc(Cl)ccc34)CC2)cc1 | 5.3 | 98 | 3.6 | 0.8 | –
O=C(CCN1CCN(c2ccnc3cc(Cl)ccc23)CC1)N/N=C/c1ccc2c(c1)OCO2 | > 100 | 27.8 | – | – | –
O=C(CCN1CCN(c2ccnc3cc(Cl)ccc23)CC1)N/N=C/c1ccccc1 | 6.6 | 93.3 | 0.3 | 0.2 | –
O=C(CCN1CCN(c2ccnc3cc(Cl)ccc23)CC1)N/N=C/c1ccccc1[N+](=O)[O-] | 11.3 | 73.1 | – | – | –
CCOc1ccccc1/C=N/NC(=O)CCN1CCN(c2ccnc3cc(Cl)ccc23)CC1 | > 100 | 28.1 | – | – | –
O[C@@H](c1cc(C(F)(F)F)nc2c(C(F)(F)F)cccc12)[C@H]1CCCCN1 (relative stereo) [(S,R)-MEFLOQUINE] | – | – | 9.5 | 0.04 | –
NNC(=O)CCN1CCN(c2ccnc3cc(Cl)ccc23)CC1 | – | 74.1 | > 100 | 41.7 | inhibition (INH) [6]: 21.7%
CCN(CC)CCCC(C)Nc1ccnc2cc(Cl)ccc12 (configuration not stated) [CHLOROQUINE] | – | – | – | – | inhibition (INH) [6]: 87.1%
COc1cc(/C=N/NC(=O)CCN2CCN(c3ccnc4cc(Cl)ccc34)CC2)cc(Br)c1O | 20.5 | 41.5 | – | – | IC50 (Plasmodium falciparum [5]): Not Active
CCOc1ccc(/C=N/NC(=O)CCN2CCN(c3ccnc4cc(Cl)ccc34)CC2)cc1 | 12 | 14.9 | – | – | –

Structure (SMILES) | IC50 (Entamoeba histolytica [1]) [µM] | inhibition at 1 µg/mL (Plasmodium falciparum [2]) [%] | IC50 [4] [µM] | IC50 (Plasmodium falciparum [5]; [10]) [µM] | further results
CC(C)c1ccc(/C=N/NC(=O)CCN2CCN(c3ccnc4cc(Cl)ccc34)CC2)cc1 | 17.1 | 97.5 | 7.9 | 1.7 | Activity [3]: Non-toxic; inhibition (INH) [6]: 94%
O=C(CCN1CCN(c2ccnc3cc(Cl)ccc23)CC1)N/N=C/c1cccc([N+](=O)[O-])c1 | 12.6 | 19.9 | – | – | –
CCOC(OCC)c1ccc(/C=N/NC(=O)CCN2CCN(c3ccnc4cc(Cl)ccc34)CC2)cc1 | > 100 | 71.7 | – | – | –
O=C(CCN1CCN(c2ccnc3cc(Cl)ccc23)CC1)N/N=C/c1ccccn1 | > 100 | 0 | – | – | –
COc1cc(/C=N/NC(=O)CCN2CCN(c3ccnc4cc(Cl)ccc34)CC2)ccc1OC(C)C | 15.5 | 98.6 | 8.8 | 4.5 | Activity [3]: Non-toxic; inhibition (INH) [6]: 15.7%
O=C(CCN1CCN(c2ccnc3cc(Cl)ccc23)CC1)N/N=C/c1ccccc1Cl | 12.3 | 97.9 | 10.8 | 0.78 | Activity [3]: Non-toxic; inhibition (INH) [6]: 87.3%
O=C(CCN1CCN(c2ccnc3cc(Cl)ccc23)CC1)N/N=C/c1ccccc1O | 25.6 | 98.9 | 11.5 | 0.33 | Activity [3]: Non-toxic; Activity (Plasmodium falciparum [7]): Active; inhibition (INH) [6]: 83.2%
COc1ccc(/C=N/NC(=O)CCN2CCN(c3ccnc4cc(Cl)ccc34)CC2)cc1 | 19.7 | 43 | – | – | –
O=C(CCN1CCN(c2ccnc3cc(Cl)ccc23)CC1)N/N=C/c1c[nH]c2ccccc12 | 9.6 | 81.5 | 5.7 | 3.3 | Activity [3]: Non-toxic; inhibition (INH) [6]: 43.3%
O=C(CCN1CCN(c2ccnc3cc(Cl)ccc23)CC1)N/N=C/c1ccc([N+](=O)[O-])cc1 | 0.95 | 38.4 | 12.1 | – | –
CCOC(=O)COc1ccc(/C=N/NC(=O)CCN2CCN(c3ccnc4cc(Cl)ccc34)CC2)cc1OC | > 100 | 71.7 | – | – | –
COc1cc(/C=N/NC(=O)CCN2CCN(c3ccnc4cc(Cl)ccc34)CC2)ccc1O | 21.3 | 99.1 | 9.4 | 2.1 | Activity [3]: Non-toxic; inhibition (INH) [6]: 50.7%
COc1cc(/C=N/NC(=O)CCN2CCN(c3ccnc4cc(Cl)ccc34)CC2)ccc1OC(C)=O | 0.13 | 0 | 15.8 | – | Ratio IC50 (Entamoeba histolytica [8]): 10; Ratio IC50 [9]: 121
O=C(CCN1CCN(c2ccnc3cc(Cl)ccc23)CC1)N/N=C/c1ccccc1C(F)(F)F | 8.1 | 59.6 | – | – | –
O=C(CCN1CCN(c2ccnc3cc(Cl)ccc23)CC1)N/N=C/c1ccc(O)cc1 | > 100 | 80.6 | – | – | –
Cc1ccc(/C=N/NC(=O)CCN2CCN(c3ccnc4cc(Cl)ccc34)CC2)cc1 | 8.1 | 81.4 | – | – | –
CCc1ccc(/C=N/NC(=O)CCN2CCN(c3ccnc4cc(Cl)ccc34)CC2)cc1 | 11.1 | 97.8 | – | – | –
COc1cc(/C=N/NC(=O)CCN2CCN(c3ccnc4cc(Cl)ccc34)CC2)c(Br)c(OC)c1OC | 3.7 | 42.9 | 9.6 | – | IC50 (Plasmodium falciparum [5]): Not Active
